In patent EP0428854A2, “Process for the preparation of 4-(4-isobutylphenyl)-butyraldehyde” (BOEHRINGER INGELHEIM KG, priority 1989, dated 1991):

Target: T1, PAF-Rezeptor (Homo sapiens, UniProt P25105)
T1 construct: endogenous in cells; host or cells: intact human platelets from blood of healthy donors, purified on Sepharose CL-2B
Assay: [3H]PAF receptor binding on vital human platelets (competitive displacement of the radioligand)
Settings: potency of the (-)-enantiomer relative to the other enantiomer, [³H]PAF binding
Description: Überraschenderweise wurde gefunden, daß das (-)-Enantiomere 40-mal wirkungsstärker ist. Die pharmakologische Wirkung wurde anhand des nachfolgenden Experiments bestimmt: [³H]PAF-Rezeptor-Bindung an vitalen humanen Blutplättchen
Bestimmt wird die konkurrierende Wechselwirkung von Prüfsubstanzen (hier PAF-Antagonisten) mit der bekannten Wechselwirkung des Radioliganden [³H]PAF zum gleichen Rezeptor. Die Bindungsstudien wurden an vitalem menschlichen Thrombozyten vorgenommen. Blutproben von gesunden Spendern wurden mit ACD-Puffer verdünnt und zentrifugiert (15 Min., 160 x g). Das blättchenreiche Plasma wird durch Chromatographie an Sepharose CL-2B [Zum Eluieren: HEPES-Puffer, pH 7,4 20°C] gereinigt.
Definierte Mengen [z.B. 800 µl] der Blättchensuspension wurden 90 Min. bei Raumtemperatur inkubiert, d.h. vermischt mit: • a) einer […] [³H]PAF-Lösung, verdünnt mit Puffer. • b) mit einer 30 pmolaren [³H] PAF-Lösung, die gleichzeitig eine µmolare (nicht markierte) PAF-Lösung enthält, • c) mit der 30 pmolaren [³H]PAF-Lösung und den Lösungen der Prüfsubstanzen (unterschiedliche Konzentrationen) • a) Dient zur Ermittlung der totalen Bindung, • b) dient zur Ermittlung der unspezifischen Bindung.
Die Reaktion wurde durch Vakuumfiltration abgestoppt. Die Filter mit den Blutplättchen werden mit Szintilationsflüssigkeit versetzt und die verbliebene Radioaktivität in einem Counter gemessen. […]

T1 sequence (P25105 whole entry): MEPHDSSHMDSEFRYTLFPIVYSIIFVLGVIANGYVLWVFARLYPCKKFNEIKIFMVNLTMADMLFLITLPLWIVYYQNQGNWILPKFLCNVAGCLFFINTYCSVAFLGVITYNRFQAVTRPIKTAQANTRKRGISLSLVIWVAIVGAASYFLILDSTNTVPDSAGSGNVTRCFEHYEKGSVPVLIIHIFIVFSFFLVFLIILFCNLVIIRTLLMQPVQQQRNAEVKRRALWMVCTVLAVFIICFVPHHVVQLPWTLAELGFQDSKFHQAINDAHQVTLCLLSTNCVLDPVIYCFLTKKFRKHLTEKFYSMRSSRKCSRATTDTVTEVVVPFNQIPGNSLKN

Structure (SMILES): Cc1nnc2n1-c1sc(CCc3ccc(CC(C)C)cc3)cc1C(c1ccccc1Cl)=NC2C (single isomer, unassigned; (-)) [(-)Enantiomer, (-)-4-(2-Chlorphenyl)-2-[2-(4-isobutylphenyl)ethyl]-6,9-dimethyl-6H-thieno[3,2-f][1,2,4]triazolo[4,3-a][1,4]diazepin]
- wirkungsstärker: 40 mal
